Molecules are shown by their SMILES.

A word on the IC50: it is the concentration needed to halve the response being measured.

One assay deals with T1, Rat M4 (Rattus norvegicus, UniProt P08485).
T1 construct: expressed in transfected cells; host or cells: CHO-K1 (ATCC), stably expressing M4 and Gqi5
T1 sequence (P08485 1-478): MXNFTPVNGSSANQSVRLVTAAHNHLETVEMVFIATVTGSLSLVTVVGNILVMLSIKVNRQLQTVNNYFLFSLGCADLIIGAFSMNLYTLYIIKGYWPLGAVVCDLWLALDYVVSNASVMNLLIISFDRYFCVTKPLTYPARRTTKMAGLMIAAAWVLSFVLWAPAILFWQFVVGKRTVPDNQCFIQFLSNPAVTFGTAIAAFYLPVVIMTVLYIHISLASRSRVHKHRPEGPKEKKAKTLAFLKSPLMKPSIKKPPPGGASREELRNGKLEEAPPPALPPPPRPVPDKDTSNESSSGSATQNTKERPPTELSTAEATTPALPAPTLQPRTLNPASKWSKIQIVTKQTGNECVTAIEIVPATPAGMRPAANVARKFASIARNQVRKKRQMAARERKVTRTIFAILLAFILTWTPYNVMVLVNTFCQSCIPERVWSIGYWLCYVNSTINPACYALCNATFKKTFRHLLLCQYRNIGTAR
Briefly: mAChR M4 cell-based functional calcium flux assay (rat M4/Gqi5/CHO cells). The settings on record: for Emin (rat M4): % ACh maximum at 30 μM; for IC50: decrease of the response to an EC80 concentration of acetylcholine. The procedure, abridged: (§1)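 CHO-K1 cells stably co-expressing M4 of the given species with chimeric Gqi5 were loaded with Fluo-4 AM and read for calcium flux. Compounds (10-point, 1:3 dilutions) were added first, followed by an acetylcholine EC20 at 143 s and an EC80 at 268 s. IC50 reflects the concentration-dependent fall in the EC80 response, fitted with a four-parameter logistic.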
A general note: A change in cytosolic calcium serves as a functional read-out for many receptors and channels.

The target of the next assay is T2, Human M4 (Homo sapiens, UniProt P08173).
T2 construct: expressed in transfected cells; host or cells: CHO-K1 (ATCC), stably expressing M4 and Gqi5
T2 sequence (P08173 1-479): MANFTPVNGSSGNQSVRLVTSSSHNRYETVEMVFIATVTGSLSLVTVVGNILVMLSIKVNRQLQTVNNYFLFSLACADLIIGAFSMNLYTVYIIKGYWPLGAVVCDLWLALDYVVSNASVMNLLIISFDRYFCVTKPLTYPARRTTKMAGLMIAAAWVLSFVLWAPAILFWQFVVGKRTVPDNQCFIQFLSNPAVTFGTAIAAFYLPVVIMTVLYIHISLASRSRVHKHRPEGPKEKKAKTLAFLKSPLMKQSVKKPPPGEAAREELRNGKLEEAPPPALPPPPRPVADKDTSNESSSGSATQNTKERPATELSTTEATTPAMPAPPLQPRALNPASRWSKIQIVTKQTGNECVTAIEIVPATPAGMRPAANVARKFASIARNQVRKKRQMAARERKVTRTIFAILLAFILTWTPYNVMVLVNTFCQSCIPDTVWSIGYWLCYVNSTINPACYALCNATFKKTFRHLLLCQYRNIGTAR
Kind of assay: mAChR M4 cell-based functional calcium flux assay (human M4/Gqi5/CHO cells). The conditions noted are these: for Emin (human M4): % ACh maximum at 30 μM; for IC50: decrease of the response to an EC80 concentration of acetylcholine. The procedure, abridged: as §1

Regarding `CC(C)(C)CCN1CCC2(CC1)CC2CNc1ccc(N2CCC(F)(F)C2)nn1` (centres unmarked) [Compound 75, 6-(3,3-difluoropyrrolidin-1-yl)-N-((6-(3,3-dimethylbutyl)-6-azaspiro[2.5]octan-1-yl)methyl)pyridazin-3-amine], at Rat M4, the “Emin (rat M4)” value stood at 5% and the IC50 is 114 nM. At Human M4, the “Emin (human M4)” value is on record as 4% and the IC50 was determined as 41.2 nM.
The corresponding values for `Cc1cnn(C)c1-c1ccc(N(C)CC2CC23CCN(CCC(C)(C)C)CC3)nn1` (centres unmarked) [Compound 76, 6-(1,4-dimethyl-1H-pyrazol-5-yl)-N-((6-(3,3-dimethylbutyl)-6-azaspiro[2.5]octan-1-yl)methyl)-N-methylpyridazin-3-amine] are 7%, 693 nM, 4% and 99.6 nM.
The corresponding values for `CC(C)(C)CCN1CCC2(CC1)CC2CNc1ccc(N2CCOCC2)nn1` (centres unmarked) [Compound 79, N-[[6-(3,3-dimethylbutyl)-6-azaspiro[2.5]octan-2-yl]methyl]-6-morpholino-pyridazin-3-amine] are 5%, 13.9 nM, 5% and 5 nM.
Take `CC(C)(C)CCN1CCC2(CC1)CC2CNc1ccc(N2CCC(F)(F)CC2)nn1` (centres unmarked) [Compound 80, 6-(4,4-difluoro-1-piperidyl)-N-[[6-(3,3-dimethylbutyl)-6-azaspiro[2.5]octan-2-yl]methyl]pyridazin-3-amine]: at Rat M4, the “Emin (rat M4)” value was 3% and the IC50 was found to be 93.4 nM. Further, at Human M4, the “Emin (human M4)” value was found to be 3% and the IC50 was 39.8 nM.
On to `CC(C)(C)CCN1CCC2(CC1)CC2CNc1ccc(N2CCCC2)nn1` (centres unmarked) [Compound 81, N-[[6-(3,3-dimethylbutyl)-6-azaspiro[2.5]octan-2-yl]methyl]-6-pyrrolidin-1-yl-pyridazin-3-amine], for which, on Rat M4, the “Emin (rat M4)” value is reported as 4% and the IC50 stood at 307 nM. Besides, at Human M4, the “Emin (human M4)” value is 4% and the IC50 amounted to 85.2 nM.
With `C1=CC2CC1CC2CN1CCC2(CC1)CC2CNc1ccc(N2CCOCC2)nn1` (centres unmarked) [Compound 82, N-[[6-(5-bicyclo[2.2.1]hept-2-enylmethyl)-6-azaspiro[2.5]octan-2-yl]methyl]-6-morpholino-pyridazin-3-amine], at Rat M4, the “Emin (rat M4)” value worked out at 6% and the IC50 worked out at 48.2 nM. Also, at Human M4, the “Emin (human M4)” value is on record as 3% and the IC50 came out at 5.06 nM.
The corresponding values for `c1cc(N2CCOCC2)nnc1NCC1CC12CCN(CC1CCCCC1)CC2` (centres unmarked) [Compound 83, N-[[6-(cyclohexylmethyl)-6-azaspiro[2.5]octan-2-yl]methyl]-6-morpholino-pyridazin-3-amine] are 7%, 362 nM, 6% and 33.5 nM.
In the same order, the values of `c1cc(N2CCOCC2)nnc1NCC1CC12CCN(CC13CC4CC(CC(C4)C1)C3)CC2` (centres unmarked) [Compound 84, N-[[6-(1-adamantylmethyl)-6-azaspiro[2.5]octan-2-yl]methyl]-6-morpholino-pyridazin-3-amine] are 3%, 257 nM, 5% and 33.9 nM.
In the same order, the values of `Cc1nn(C)cc1-c1nnc(NCC2CC23CCN(Cc2ccccc2)CC3)c2ccccc12` (centres unmarked) [Compound 88, N-[(6-benzyl-6-azaspiro[2.5]octan-2-yl)methyl]-4-(1,3-dimethylpyrazol-4-yl)phthalazin-1-amine] are 6%, 1250 nM, 5% and 265 nM.
Take `Cc1nn(C)cc1-c1nnc(NCC2CC23CCN(CC24CC5CC(CC(C5)C2)C4)CC3)c2ccccc12` (centres unmarked) [Compound 89, N-[[6-(1-adamantylmethyl)-6-azaspiro[2.5]octan-2-yl]methyl]-4-(1,3-dimethylpyrazol-4-yl)phthalazin-1-amine]: on Rat M4, the “Emin (rat M4)” value stood at 4% and the IC50 was 350 nM. Moreover, at Human M4, the “Emin (human M4)” value came out at 3% and the IC50 is 170 nM.
As for `Fc1ccc(Cl)c(-c2ccc(NC[C@@H]3CC34CCN(CC3CCOCC3)CC4)nn2)c1` [Compound 107, (R)-6-(2-chloro-5-fluoro-phenyl)-N-[[6-(tetrahydropyran-4-ylmethyl)-6-azaspiro[2.5]octan-2-yl]methyl]pyridazin-3-amine], on Rat M4, the “Emin (rat M4)” value turned out to be 6% and the IC50 worked out at 12.9 nM. At Human M4, the “Emin (human M4)” value amounted to 4% and the IC50 was found to be 1.8 nM.
For the molecule `Fc1ccc(Cl)c(-c2ccc(NC[C@@H]3CC34CCN(CC3CC5C=CC3C5)CC4)nn2)c1` (stereo partly drawn) [Compound 108, N-(((1R)-6-(bicyclo[2.2.1]hept-5-en-2-ylmethyl)-6-azaspiro[2.5]octan-1-yl)methyl)-6-(2-chloro-5-fluorophenyl)pyridazin-3-amine], at Rat M4, the “Emin (rat M4)” value was determined as 3% and the IC50 came out at 48.1 nM. On Human M4, the “Emin (human M4)” value amounted to 2% and the IC50 worked out at 9.89 nM.
As to `Fc1ccc(Cl)c(-c2ccc(NC[C@@H]3CC34CCN(CC3CCCCCC3)CC4)nn2)c1` [Compound 109, (R)-6-(2-chloro-5-fluorophenyl)-N-((6-(cycloheptylmethyl)-6-azaspiro[2.5]octan-1-yl)methyl)pyridazin-3-amine], on Rat M4, the “Emin (rat M4)” value worked out at 3% and the IC50 stood at 92.1 nM. For the same molecule, at Human M4, the “Emin (human M4)” value amounted to 4% and the IC50 is 50.6 nM.
In the same order, the values of `Fc1ccc(Cl)c(-c2ccc(NC[C@@H]3CC34CCN(CC3CC5CCC3O5)CC4)nn2)c1` (stereo partly drawn) [Compound 110, N-(((1R)-6-((7-oxabicyclo[2.2.1]heptan-2-yl)methyl)-6-azaspiro[2.5]octan-1-yl)methyl)-6-(2-chloro-5-fluorophenyl)pyridazin-3-amine] are 4%, 39.2 nM, 3% and 2.29 nM.
As to `CC(=O)Nc1ccc(-c2ccc(NC[C@@H]3CC34CCN(CCC(C)(C)C)CC4)nn2)cc1` [Compound 111, N-[4-[6-[[(2R)-6-(3,3-dimethylbutyl)-6-azaspiro[2.5]octan-2-yl]methylamino]pyridazin-3-yl]phenyl]acetamide], on Rat M4, the “Emin (rat M4)” value was found to be 4% and the IC50 was 7.53 nM. Further, on Human M4, the “Emin (human M4)” value was determined as 6% and the IC50 is 2.04 nM.
As to `Cc1cccnc1CN1CCC2(CC1)C[C@H]2CNc1ccc(-c2cc(F)ccc2Cl)nn1` [Compound 114, 6-(2-chloro-5-fluoro-phenyl)-N-[[(2R)-6-[(3-methyl-2-pyridyl)methyl]-6-azaspiro[2.5]octan-2-yl]methyl]pyridazin-3-amine], at Rat M4, the “Emin (rat M4)” value is given as 5% and the concentration for half-maximal inhibition (IC50) was 223 nM. For the same molecule, at Human M4, the “Emin (human M4)” value is 2% and the IC50 is 25.7 nM.
As for `Fc1ccc(Cl)c(-c2ccc(NC[C@@H]3CC34CCN(CC35CC6CC(CC(C6)C3)C5)CC4)nn2)c1` [Compound 115, N-[[(2R)-6-(1-adamantylmethyl)-6-azaspiro[2.5]octan-2-yl]methyl]-6-(2-chloro-5-fluoro-phenyl)pyridazin-3-amine], at Rat M4, the “Emin (rat M4)” value was found to be 3% and the IC50 is 152 nM. Also, on Human M4, the “Emin (human M4)” value stood at 2% and the IC50 came to 69.8 nM.

The record behind these values is US12600726B2, “Antagonists of the muscarinic acetylcholine receptor M4” (Vanderbilt University, priority 2017, dated 2026).
